Experimental data taken from patent US20090203708A1, “NOVEL SUBSTITUTED-1-H-QUINAZOLINE-2,4-DIONE DERIVATIVES, PREPARATION METHOD THEREOF AND PHARMACEUTICAL COMPOSITION CONTAINING THE SAME” (Korea Research Institute of Chemical Technology, priority 2006, published 2009).

Assays:
D4 (hD4.2 receptor) = target: T1, D4 (hD4.2 receptor) (Homo sapiens, UniProt P21917, DEL265-296); assay: Radioligand binding assay, dopamine D4; conditions: [3H] YM-09151-2 0.06 nM; read-out: Binding affinity IC50 D4
T1 construct: purchased BioSignal Packard Inc., Montreal, Canada
T1 sequence (P21917 with tags, fused parts or gaps DEL265-296): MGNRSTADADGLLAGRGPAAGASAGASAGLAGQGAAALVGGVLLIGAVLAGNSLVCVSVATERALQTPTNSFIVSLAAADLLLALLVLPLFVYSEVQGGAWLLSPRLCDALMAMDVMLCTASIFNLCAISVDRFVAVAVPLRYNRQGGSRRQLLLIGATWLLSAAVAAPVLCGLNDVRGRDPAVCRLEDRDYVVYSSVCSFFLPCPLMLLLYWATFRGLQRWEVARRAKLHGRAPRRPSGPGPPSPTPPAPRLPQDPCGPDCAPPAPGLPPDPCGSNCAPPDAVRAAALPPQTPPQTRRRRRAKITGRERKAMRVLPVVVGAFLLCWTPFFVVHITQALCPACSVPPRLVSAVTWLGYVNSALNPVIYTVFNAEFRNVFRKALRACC
Method: (§1) Radioligand binding assays for dopamine receptor family (D1, D2 and D3) were performed according to the protocols provided by the manufacturer of receptor membranes (BioSignal Packard Inc., Montreal, Canada). The radioligands used were [^3H] spiperone (for hD2L and hD3 receptors, 1 nM) and [^3H] YM-09151-2 (hD4.2 receptor, 0.06 nM). Briefly, the buffer used in the D1, D2 and D3 receptor binding assay was 50 mM Tris-HCl (pH 7.4), containing 10 mM MgCl2 and 1 mM EDTA, or 50 mM Tris-HCl (pH 7.4), containing 5 mM MgCl2, 5 mM EDTA, 5 mM KCl, 1.5 mM CaCl2 and 120 mM NaCl. For [^3H] YM-09151-2 receptor binding assays, 50 mM Tris-HCl (pH 7.4) containing 5 mM MgCl2, 5 mM EDTA, 5 mM KCl and 1.5 mM CaCl2, was used as a buffer. Nonspecific binding was determined with haloperidol (10 μM) for D2 and D3 and clozapine (10 μM) for D4 receptors.
(§2) Competition binding studies were carried out with 7-8 concentrations of the test compound run in duplicate tubes, and isotherms from three assays were calculated by computerized nonlinear regression analysis (GraphPad Prism Program, San Diego, […]) to yield median inhibitory concentration (IC50) values.

D3 (hD3 receptor) = D3 (hD3 receptor) (Homo sapiens, UniProt P35462); assay: Radioligand binding assay, dopamine D3
[1] = target: 5-HT2a (human recombinant receptor, CHO-K1) (Homo sapiens, UniProt P28223); assay: Radioligand binding assay, 5-HT2a
[2] = target: T2, 5-HT1a (human recombinant receptor, CHO-K1) (Homo sapiens, UniProt P08908); assay: Radioligand binding assay, 5-HT1a
T2 sequence (P08908 1-422): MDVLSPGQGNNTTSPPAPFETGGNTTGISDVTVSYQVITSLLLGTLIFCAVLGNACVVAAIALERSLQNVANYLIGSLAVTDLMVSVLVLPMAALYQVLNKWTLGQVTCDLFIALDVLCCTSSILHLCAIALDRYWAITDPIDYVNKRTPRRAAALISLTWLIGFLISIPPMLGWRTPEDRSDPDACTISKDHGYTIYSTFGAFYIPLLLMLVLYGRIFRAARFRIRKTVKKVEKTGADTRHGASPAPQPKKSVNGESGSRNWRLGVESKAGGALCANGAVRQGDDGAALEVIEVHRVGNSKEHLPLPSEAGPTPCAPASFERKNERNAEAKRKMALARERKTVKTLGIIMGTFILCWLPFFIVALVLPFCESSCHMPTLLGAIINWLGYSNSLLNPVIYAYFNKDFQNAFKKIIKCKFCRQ

D2 (hD2L receptor) = target: T3, D2 (hD2L receptor) (Homo sapiens, UniProt P14416); assay: Radioligand binding assay, dopamine D2; conditions: [3H] spiperone 1 nM; read-out: Binding affinity IC50 D2
T3 construct: purchased BioSignal Packard Inc., Montreal, Canada
Method: as §1, §2

[3] = target: human serotonin 5-HT6 receptor (Homo sapiens, UniProt P50406); assay: [3H]LSD binding assay for cloned 5-HT6 receptors
[4] = target: T4, 5-HT2c (human recombinant receptor, CHO-K1) (Homo sapiens, UniProt P28335); assay: Radioligand binding assay, 5-HT2c
T4 sequence (P28335 33-458): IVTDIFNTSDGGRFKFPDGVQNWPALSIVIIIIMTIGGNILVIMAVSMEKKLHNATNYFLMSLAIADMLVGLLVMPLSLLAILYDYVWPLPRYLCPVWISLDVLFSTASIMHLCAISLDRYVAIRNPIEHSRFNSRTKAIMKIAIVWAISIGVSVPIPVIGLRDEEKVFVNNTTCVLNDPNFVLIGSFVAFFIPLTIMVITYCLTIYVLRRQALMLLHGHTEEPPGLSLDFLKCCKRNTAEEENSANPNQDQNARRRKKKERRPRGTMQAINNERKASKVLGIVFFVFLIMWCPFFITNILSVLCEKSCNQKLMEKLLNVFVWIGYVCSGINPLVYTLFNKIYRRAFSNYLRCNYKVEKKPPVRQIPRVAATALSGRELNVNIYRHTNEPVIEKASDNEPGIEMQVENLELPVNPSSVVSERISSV

[5] = target: 5-HT7 (human recombinant receptor, CHO-K1) (Homo sapiens, UniProt P34969); assay: Radioligand binding assay, 5-HT7
D1 receptor = D1 receptor (Homo sapiens, UniProt P21728); assay: Radioligand binding assay, dopamine D1
[6] = target: T5, HeLa cells transfected with human 5-HT6 receptor (Homo sapiens, UniProt P50406); assay: Serotonin-stimulated cAMP accumulation in HeLa cells (EIA); type: cell-based
T5 construct: expressed in transfected cells; host or cells: HeLa

[7] = system: apomorphine-induced PPI disruption; assay: Apomorphine-induced PPI disruption in rat; conditions: rat, 2.5, 5, 10 and 20 mg/kg i.p. alone
[8] = system: retention of a previously learned task; conditions: rats, literature; cited from earlier work
[9] = in vivo; cited from earlier work
[10] = system: rat maximal electroseizure threshold; conditions: oral administration, literature; cited from earlier work

Chain of human serotonin 5-HT6 receptor (P50406 whole entry): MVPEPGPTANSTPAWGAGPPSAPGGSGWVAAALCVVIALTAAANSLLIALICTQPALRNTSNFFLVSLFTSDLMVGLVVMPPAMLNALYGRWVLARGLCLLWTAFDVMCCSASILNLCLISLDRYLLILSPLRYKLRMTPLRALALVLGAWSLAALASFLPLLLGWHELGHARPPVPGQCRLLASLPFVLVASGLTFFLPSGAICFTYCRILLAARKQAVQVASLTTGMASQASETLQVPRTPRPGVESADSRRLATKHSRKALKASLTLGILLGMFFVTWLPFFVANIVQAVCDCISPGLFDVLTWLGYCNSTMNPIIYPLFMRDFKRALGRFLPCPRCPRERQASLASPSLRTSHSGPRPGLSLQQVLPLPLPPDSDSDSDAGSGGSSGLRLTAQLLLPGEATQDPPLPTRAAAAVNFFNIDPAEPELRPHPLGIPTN
Chain of D1 receptor (P21728 whole entry): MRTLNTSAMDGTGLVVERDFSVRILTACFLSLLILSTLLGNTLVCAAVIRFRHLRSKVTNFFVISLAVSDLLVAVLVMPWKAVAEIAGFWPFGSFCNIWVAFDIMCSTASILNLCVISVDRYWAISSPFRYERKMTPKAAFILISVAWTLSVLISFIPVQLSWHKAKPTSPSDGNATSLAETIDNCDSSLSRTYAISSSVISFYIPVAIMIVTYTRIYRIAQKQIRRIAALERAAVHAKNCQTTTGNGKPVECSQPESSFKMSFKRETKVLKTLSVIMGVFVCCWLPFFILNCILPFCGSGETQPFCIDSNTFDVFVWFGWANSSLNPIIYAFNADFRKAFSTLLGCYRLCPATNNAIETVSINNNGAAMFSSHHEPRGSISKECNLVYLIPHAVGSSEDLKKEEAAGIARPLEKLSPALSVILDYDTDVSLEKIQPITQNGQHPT
Chain of D3 (hD3 receptor) (P35462 whole entry): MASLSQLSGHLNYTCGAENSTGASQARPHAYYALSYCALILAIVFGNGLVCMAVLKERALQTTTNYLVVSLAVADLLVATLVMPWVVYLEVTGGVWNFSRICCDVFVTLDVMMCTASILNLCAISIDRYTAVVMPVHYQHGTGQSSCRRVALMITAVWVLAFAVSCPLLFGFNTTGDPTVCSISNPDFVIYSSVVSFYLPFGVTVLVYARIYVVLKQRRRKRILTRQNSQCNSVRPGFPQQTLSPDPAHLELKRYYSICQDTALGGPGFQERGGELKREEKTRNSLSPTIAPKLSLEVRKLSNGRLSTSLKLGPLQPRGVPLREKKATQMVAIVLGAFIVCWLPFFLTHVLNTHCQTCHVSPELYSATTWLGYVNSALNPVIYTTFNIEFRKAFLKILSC
T3 sequence (P14416 whole entry): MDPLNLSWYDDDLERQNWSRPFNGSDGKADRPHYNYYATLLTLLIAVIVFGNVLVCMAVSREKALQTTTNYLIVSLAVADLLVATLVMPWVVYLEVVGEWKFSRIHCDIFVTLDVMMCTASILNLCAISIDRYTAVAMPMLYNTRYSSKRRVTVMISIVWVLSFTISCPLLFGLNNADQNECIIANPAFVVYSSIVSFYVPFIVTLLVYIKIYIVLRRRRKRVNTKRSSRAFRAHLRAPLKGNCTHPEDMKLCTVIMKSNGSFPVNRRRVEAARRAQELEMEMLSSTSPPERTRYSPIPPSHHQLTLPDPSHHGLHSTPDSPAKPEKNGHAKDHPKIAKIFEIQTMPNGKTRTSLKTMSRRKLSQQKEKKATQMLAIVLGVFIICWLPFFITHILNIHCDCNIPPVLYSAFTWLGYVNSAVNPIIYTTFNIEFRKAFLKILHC
Chain of 5-HT2a (human recombinant receptor, CHO-K1) (P28223 whole entry): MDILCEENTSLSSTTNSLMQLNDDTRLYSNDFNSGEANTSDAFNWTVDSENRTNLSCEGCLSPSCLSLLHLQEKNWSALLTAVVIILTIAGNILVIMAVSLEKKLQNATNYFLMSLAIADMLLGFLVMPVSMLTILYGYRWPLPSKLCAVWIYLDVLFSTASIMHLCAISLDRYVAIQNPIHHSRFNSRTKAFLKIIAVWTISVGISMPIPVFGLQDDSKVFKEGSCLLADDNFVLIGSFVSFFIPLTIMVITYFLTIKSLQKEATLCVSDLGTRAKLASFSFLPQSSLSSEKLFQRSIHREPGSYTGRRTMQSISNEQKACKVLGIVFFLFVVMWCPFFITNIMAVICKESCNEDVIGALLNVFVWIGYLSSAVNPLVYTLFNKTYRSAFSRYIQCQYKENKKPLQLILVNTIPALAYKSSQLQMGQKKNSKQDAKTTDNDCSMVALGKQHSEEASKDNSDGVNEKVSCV
Chain of 5-HT7 (human recombinant receptor, CHO-K1) (P34969 whole entry): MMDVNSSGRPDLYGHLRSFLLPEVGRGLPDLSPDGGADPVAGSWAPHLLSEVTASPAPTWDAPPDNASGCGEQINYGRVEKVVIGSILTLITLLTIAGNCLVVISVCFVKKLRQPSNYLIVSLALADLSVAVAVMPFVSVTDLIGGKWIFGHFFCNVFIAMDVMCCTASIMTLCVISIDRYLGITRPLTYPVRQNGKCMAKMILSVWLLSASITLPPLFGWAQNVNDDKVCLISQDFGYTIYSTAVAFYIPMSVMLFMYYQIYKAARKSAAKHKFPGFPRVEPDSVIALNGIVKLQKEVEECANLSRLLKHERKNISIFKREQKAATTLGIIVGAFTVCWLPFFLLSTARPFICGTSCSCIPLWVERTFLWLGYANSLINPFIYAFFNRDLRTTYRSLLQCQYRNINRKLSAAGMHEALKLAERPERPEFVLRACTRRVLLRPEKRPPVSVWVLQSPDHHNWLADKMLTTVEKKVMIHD
T5 sequence (P50406 whole entry): as the sequence (P50406 whole entry) above

| SMILES | IC50 (D4 (hD4.2 receptor)) [µM] | IC50 (D3 (hD3 receptor)) [µM] | IC50 [1] [µM] | IC50 [2] [µM] | IC50 (D2 (hD2L receptor)) [µM] | IC50 [3] [µM] | IC50 [4] [µM] | IC50 [5] [µM] | IC50 (D1 receptor) [µM] | melting point [°C] | antagonist activity compared with methiothepin [6] | effect on serotonin-stimulated cAMP accumulation (in words) ([6]; HeLa cells, FIG. 1) | effect of compound alone on PPI versus vehicle control [7] | retention of a previously learned task in water maze [8] | bioavailability (in words) [9] | clearance (in words) [9] | seizure threshold (rat maximal electroseizure threshold) [10] |
| --- | --- | --- | --- | --- | --- | --- | --- | --- | --- | --- | --- | --- | --- | --- | --- | --- | --- |
| CN1CCN(c2cc(Cl)cc3c2c(=O)n(Cc2ccccc2)c(=O)n3Cc2ccccc2)CC1 [Example 10, 1,3-dibenzyl-7-chloro-5-(4-methyl-piperazin-1yl)-1H-quinazoline-2,4-dione] | > 10 | 1.55 | 1.69 | 4.59 | 4.35 | 0.0024 | 4.76 | 6.78 | 5.56 | 113 to 116 | – | – | – | – | – | – | – |
| CN1CCN(c2cc(Cl)cc3c2c(=O)n(Cc2ccc(F)cc2)c(=O)n3Cc2ccccc2)CC1 [Example 13, 1-benzyl-7-chloro-3-(4-fluoro-benzyl)-5-(4-methyl-piperazin-1-yl)-1H-quinazoline-2,4-dione] | > 10 | 2.38 | 1.39 | 2.77 | > 10 | 0.0015 | 1.8 | 8.64 | – | 110 to 114 | weaker antagonist activity than methiothepin | identified as 5-HT6 receptor antagonists | – | – | – | – | – |
| C[C@@H](c1ccccc1)n1c(=O)c2c(N3CCN(C)CC3)cc(Cl)cc2n(Cc2ccccc2)c1=O [Example 41, 1-benzyl-7-chloro-5-(4-methyl-piperazin-1yl)-3-[(S)-1-phenyl-ethyl]-1H-quinazoline-2,4-dione] | > 10 | 0.362 | 0.16 | > 10 | 0.744 | 0.005 | 0.865 | 2.74 | > 10 | – | – | – | – | – | – | – | – |
| CN1CCN(c2cc(Cl)cc3c2c(=O)n(CCc2ccccc2)c(=O)n3Cc2ccccc2)CC1 [Example 42, 1-benzyl-7-chloro-5-(4-methyl-piperazin-1-yl)-3-phenethyl-1H-quinazoline-2,4-dione] | > 10 | 0.638 | 0.244 | 1.3 | 2.5 | 0.0005 | 0.43 | 7.03 | 3.45 | 136 to 138 | – | – | – | – | – | – | – |
| CN1CCN(c2cc(Cl)cc3c2c(=O)n(CCCc2ccccc2)c(=O)n3Cc2ccccc2)CC1 [Example 43, 1-benzyl-7-chloro-5-(4-methyl-piperazin-1-yl)-3-(3-phenyl-propyl)-1H-quinazoline-2,4-dione] | > 10 | 1.75 | 0.892 | 2.64 | 5.67 | 0.0027 | 1.42 | 7.76 | 0.961 | 55 to 63 | – | – | – | – | – | – | – |
| O=c1c2c(N3CCNCC3)cc(Cl)cc2n(Cc2ccccc2)c(=O)n1Cc1ccccc1Br [Example 60, 1-benzyl-3-(2-bromo-benzyl)-7-chloro-5-piperazin-1-yl-1H-quinazoline-2,4-dione] | – | – | – | – | – | 0.0039 | – | – | – | 94 to 97 | – | – | no significant effects | – | – | – | – |
| C[C@@H](c1ccccc1)n1c(=O)c2c(N3CCNCC3)cc(Cl)cc2n(Cc2ccccc2)c1=O [Example 69, 1-benzyl-7-chloro-3-[(S)-1-phenyl-ethyl]-5-piperazin-1yl-1H-quinazoline-2,4-dione] | > 10 | 1.8 | 0.293 | 5.87 | > 10 | 0.0027 | 0.429 | 7.89 | 8.62 | – | – | – | – | – | – | – | – |
| O=c1c2c(N3CCNCC3)cc(Cl)cc2n(Cc2ccccc2)c(=O)n1CCc1ccccc1 [Example 70, 1-benzyl-7-chloro-3-phenethyl-5-piperazin-1-yl-1H-quinazoline-2,4-dione] | > 10 | 2.84 | 0.401 | 2.91 | 7.44 | 0.0006 | 0.752 | 7.71 | 5.71 | – | – | – | – | – | – | – | – |
| O=c1c2c(N3CCNCC3)cc(Cl)cc2n(Cc2ccccc2)c(=O)n1CCCc1ccccc1 [Example 71, 1-benzyl-7-chloro-3-(3-phenyl-propyl)-5-piperazin-1-yl-1H-quinazoline-2,4-dione] | > 10 | 1.2 | 0.733 | 0.891 | 2.72 | 0.0018 | 1.1 | 3.05 | 2.32 | 62 to 68 | – | – | – | – | – | – | – |
| COc1ccc(S(=O)(=O)Nc2cc(Br)cc(F)c2Br)cc1N1CCNCC1 [SB-357134] | – | – | – | – | – | – | – | – | – | – | – | – | – | significant improvement in retention of a previously learned task | excellent oral bioavailability | low clearance rate | potent and dose-dependent increase in seizure threshold |
